According to ChEMBL document CHEMBL4014279, “Synthesis of novel pyrazolo[3,4-b]quinolinyl acetamide analogs, their evaluation for antimicrobial and anticancer activities, validation by molecular modeling and CoMFA analysis” (Eur J Med Chem, 2017):
pIC50: −log10 of the molar value. ≈ marks a conversion by molar mass, not a printed value.

Legend:
Staphylococcus aureus [1] = test: Antibacterial activity against Staphylococcus aureus MTCC 96 after 24 hrs by well diffusion method; assay type: functional; settings: MTCC 96, 24 h
COLO 205 = test: Cytotoxicity against human COLO205 cells after 24 hrs by MTT assay; assay type: functional, cell-based; settings: COLO 205, 24 h
Escherichia coli = test: Antibacterial activity against Escherichia coli MTCC 739 after 24 hrs by well diffusion method; assay type: functional; settings: MTCC 739, 24 h
HeLa = test: Cytotoxicity against human HeLa cells after 24 hrs by MTT assay; assay type: functional, cell-based
Raoultella planticola = test: Antibacterial activity against Klebsiella planticola MTCC 530 after 24 hrs by well diffusion method; assay type: functional; settings: MTCC 530, 24 h
A549 = test: Cytotoxicity against human A549 cells after 24 hrs by MTT assay; assay type: functional, cell-based; settings: A549, 24 h
Bacillus subtilis = test: Antibacterial activity against Bacillus subtilis MTCC 121 after 24 hrs by well diffusion method; assay type: functional; settings: MTCC 121, 24 h
Micrococcus luteus = test: Antibacterial activity against Micrococcus luteus MTCC 2470 after 24 hrs by well diffusion method; assay type: functional; settings: MTCC 2470, 24 h
HepG2 = test: Cytotoxicity against human HepG2 cells after 24 hrs by MTT assay; assay type: functional, cell-based; settings: HepG2, 24 h
Pseudomonas aeruginosa = test: Antibacterial activity against Pseudomonas aeruginosa MTCC 2453 after 24 hrs by well diffusion method; assay type: functional; settings: MTCC 2453, 24 h
Staphylococcus aureus [2] = test: Antibacterial activity against Staphylococcus aureus MLS16 MTCC 2940 after 24 hrs by well diffusion method; assay type: functional; settings: MLS16 MTCC 2940, 24 h

| SMILES | MIC (Staphylococcus aureus [1]) [µg/mL] | pIC50 (COLO 205) | MIC (Escherichia coli) [µg/mL] | pIC50 (HeLa) | MIC (Raoultella planticola) [µg/mL] | pIC50 (A549) | MIC (Bacillus subtilis) [µg/mL] | MIC (Micrococcus luteus) [µg/mL] | pIC50 (HepG2) | MIC (Pseudomonas aeruginosa) [µg/mL] | MIC (Staphylococcus aureus [2]) [µg/mL] |
| --- | --- | --- | --- | --- | --- | --- | --- | --- | --- | --- | --- |
| Cc1c2ccccc2nc2c1c(C(F)(F)F)nn2CC(=O)NC1CCCCC1 | 7.8 to 125 (≈ 20 to 320 µM) | 4.61 | 7.8 to 125 (≈ 20 to 320 µM) | 4.63 | 7.8 to 125 (≈ 20 to 320 µM) | 4.55 | 7.8 to 125 (≈ 20 to 320 µM) | 7.8 to 125 (≈ 20 to 320 µM) | 4.53 | 7.8 to 125 (≈ 20 to 320 µM) | 7.8 to 125 (≈ 20 to 320 µM) |
| Cc1nn(CC(=O)NCc2ccco2)c2nc3ccccc3c(C)c12 | 7.8 to 125 (≈ 23.3 to 374 µM) | 4.81 | 7.8 to 125 (≈ 23.3 to 374 µM) | 4.84 | 7.8 to 125 (≈ 23.3 to 374 µM) | 4.83 | 7.8 to 125 (≈ 23.3 to 374 µM) | 7.8 to 125 (≈ 23.3 to 374 µM) | 4.88 | 7.8 to 125 (≈ 23.3 to 374 µM) | 7.8 to 125 (≈ 23.3 to 374 µM) |
| O=c1[nH]cc(F)c(=O)[nH]1 [FLUOROURACIL] |  | 5.72 |  | 5.85 |  | 5.92 |  |  | 5.85 |  |  |
| Cc1nn(CC(=O)NC2CC2)c2nc3ccccc3c(C)c12 | 7.8 to 125 (≈ 26.5 to 425 µM) | 4.92 | 7.8 to 125 (≈ 26.5 to 425 µM) | 4.78 | 7.8 to 125 (≈ 26.5 to 425 µM) | 4.84 | 7.8 to 125 (≈ 26.5 to 425 µM) | 7.8 to 125 (≈ 26.5 to 425 µM) | 4.82 | 7.8 to 125 (≈ 26.5 to 425 µM) | 7.8 to 125 (≈ 26.5 to 425 µM) |
| CCCCCCNC(=O)Cn1nc(C(F)(F)F)c2c(C)c3ccccc3nc21 | 7.8 to 125 (≈ 19.9 to 319 µM) | 4.65 | 7.8 to 125 (≈ 19.9 to 319 µM) | 4.66 | 7.8 to 125 (≈ 19.9 to 319 µM) | 4.69 | 7.8 to 125 (≈ 19.9 to 319 µM) | 7.8 to 125 (≈ 19.9 to 319 µM) | 4.71 | 7.8 to 125 (≈ 19.9 to 319 µM) | 7.8 to 125 (≈ 19.9 to 319 µM) |
| Cc1c2ccccc2nc2c1c(C(F)(F)F)nn2CC(=O)N1CCCCC1 | 7.8 to 125 (≈ 20.7 to 332 µM) | 4.60 | 7.8 to 125 (≈ 20.7 to 332 µM) | 4.47 | 7.8 to 125 (≈ 20.7 to 332 µM) | 4.49 | 7.8 to 125 (≈ 20.7 to 332 µM) | 7.8 to 125 (≈ 20.7 to 332 µM) | 4.44 | 7.8 to 125 (≈ 20.7 to 332 µM) | 7.8 to 125 (≈ 20.7 to 332 µM) |
| O=C(Cn1nc(C(F)(F)F)c2c(-c3ccccc3)c3ccccc3nc21)Nc1ccc([N+](=O)[O-])cc1 | 7.8 to 125 (≈ 15.9 to 254 µM) | 4.84 | 7.8 to 125 (≈ 15.9 to 254 µM) | 4.82 | 7.8 to 125 (≈ 15.9 to 254 µM) | 4.97 | 7.8 to 125 (≈ 15.9 to 254 µM) | 7.8 to 125 (≈ 15.9 to 254 µM) | 4.91 | 7.8 to 125 (≈ 15.9 to 254 µM) | 7.8 to 125 (≈ 15.9 to 254 µM) |
| O=C(Cn1nc(C(F)(F)F)c2c(-c3ccccc3)c3ccccc3nc21)N1CCCC1 | 7.8 to 125 (≈ 18.4 to 295 µM) | 4.59 | 7.8 to 125 (≈ 18.4 to 295 µM) | 4.53 | 7.8 to 125 (≈ 18.4 to 295 µM) | 4.65 | 7.8 to 125 (≈ 18.4 to 295 µM) | 7.8 to 125 (≈ 18.4 to 295 µM) | 4.48 | 7.8 to 125 (≈ 18.4 to 295 µM) | 7.8 to 125 (≈ 18.4 to 295 µM) |
| Cc1nn(CC(=O)Nc2ccc([N+](=O)[O-])cc2)c2nc3ccccc3c(C)c12 | 7.8 to 125 (≈ 20.8 to 333 µM) | 4.70 | 7.8 to 125 (≈ 20.8 to 333 µM) | 4.73 | 7.8 to 125 (≈ 20.8 to 333 µM) | 4.80 | 7.8 to 125 (≈ 20.8 to 333 µM) | 7.8 to 125 (≈ 20.8 to 333 µM) | 4.76 | 7.8 to 125 (≈ 20.8 to 333 µM) | 7.8 to 125 (≈ 20.8 to 333 µM) |
| O=C(Cn1nc(C(F)(F)F)c2c(-c3ccccc3)c3ccccc3nc21)N1CCCCC1 | 7.8 to 125 (≈ 17.8 to 285 µM) | 4.71 | 7.8 to 125 (≈ 17.8 to 285 µM) | 4.53 | 7.8 to 125 (≈ 17.8 to 285 µM) | 4.59 | 7.8 to 125 (≈ 17.8 to 285 µM) | 7.8 to 125 (≈ 17.8 to 285 µM) | 4.52 | 7.8 to 125 (≈ 17.8 to 285 µM) | 7.8 to 125 (≈ 17.8 to 285 µM) |
| Cc1c2ccccc2nc2c1c(C(F)(F)F)nn2CC(=O)N1CCN(CCO)CC1 | 7.8 to 125 (≈ 18.5 to 297 µM) | 4.70 | 7.8 to 125 (≈ 18.5 to 297 µM) | 4.55 | 7.8 to 125 (≈ 18.5 to 297 µM) | 4.51 | 7.8 to 125 (≈ 18.5 to 297 µM) | 7.8 to 125 (≈ 18.5 to 297 µM) | 4.52 | 7.8 to 125 (≈ 18.5 to 297 µM) | 7.8 to 125 (≈ 18.5 to 297 µM) |
